# The source made the active and inactive calls. The rule behind the calls is not given here.
# How the values were obtained:
# Type in all cases: cell-based
# Details in all cases: dose 0.1-10 µM
# K562 [1] = test: Induction of PRC2 degradation in human K562 cells assessed as reduction of H3K27me3 chromatin mark at 0.1 to 10 uM incubated for 24 hrs by Western blotting analysis
# [2] = molecular target: Protein cereblon/Polycomb protein EED (Homo sapiens, UniProt O75530+Q96SW2); test: PROTAC activity at CRBN/EED in human K562 cells assessed as degradation of EED protein expression at 0.1 to 10 uM incubated for 24 hrs by Western blotting analysis
# Chain of Protein cereblon/Polycomb protein EED (O75530 2-441 limits assumed): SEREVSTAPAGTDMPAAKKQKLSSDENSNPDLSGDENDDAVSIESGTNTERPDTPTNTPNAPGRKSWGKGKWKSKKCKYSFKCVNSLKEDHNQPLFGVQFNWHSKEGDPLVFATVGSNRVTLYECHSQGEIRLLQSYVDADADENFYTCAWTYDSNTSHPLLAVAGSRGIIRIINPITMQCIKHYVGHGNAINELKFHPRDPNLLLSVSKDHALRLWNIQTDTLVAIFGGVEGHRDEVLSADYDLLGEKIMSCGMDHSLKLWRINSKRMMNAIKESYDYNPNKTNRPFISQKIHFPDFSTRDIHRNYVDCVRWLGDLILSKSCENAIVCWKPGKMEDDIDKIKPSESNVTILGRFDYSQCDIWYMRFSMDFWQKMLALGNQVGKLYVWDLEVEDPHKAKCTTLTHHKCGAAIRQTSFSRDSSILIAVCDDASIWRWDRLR
# Chain of Protein cereblon/Polycomb protein EED (Q96SW2 whole entry partner): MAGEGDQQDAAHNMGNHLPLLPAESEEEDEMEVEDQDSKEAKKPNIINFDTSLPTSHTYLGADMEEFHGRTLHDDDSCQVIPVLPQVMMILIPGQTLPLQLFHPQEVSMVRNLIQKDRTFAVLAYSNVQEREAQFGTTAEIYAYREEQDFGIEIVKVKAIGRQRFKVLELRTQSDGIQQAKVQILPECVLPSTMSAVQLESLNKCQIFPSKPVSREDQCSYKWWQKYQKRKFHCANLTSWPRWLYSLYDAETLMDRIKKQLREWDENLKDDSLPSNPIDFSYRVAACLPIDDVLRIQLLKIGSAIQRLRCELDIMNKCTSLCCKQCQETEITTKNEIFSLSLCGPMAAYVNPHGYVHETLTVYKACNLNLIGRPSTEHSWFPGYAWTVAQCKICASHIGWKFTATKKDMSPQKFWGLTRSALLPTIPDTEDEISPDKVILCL
# [3] = molecular target: Protein cereblon/Histone-lysine N-methyltransferase EZH2 (Homo sapiens) (UniProt Q15910+Q96SW2); test: PROTAC activity at CRBN/EZH2 in human K562 cells assessed as degradation of EZH2 protein expression at 0.1 to 10 uM incubated for 24 hrs by Western blotting analysis
# Chain of Protein cereblon/Histone-lysine N-methyltransferase EZH2 (Homo sapiens) (Q15910 whole entry, looked up): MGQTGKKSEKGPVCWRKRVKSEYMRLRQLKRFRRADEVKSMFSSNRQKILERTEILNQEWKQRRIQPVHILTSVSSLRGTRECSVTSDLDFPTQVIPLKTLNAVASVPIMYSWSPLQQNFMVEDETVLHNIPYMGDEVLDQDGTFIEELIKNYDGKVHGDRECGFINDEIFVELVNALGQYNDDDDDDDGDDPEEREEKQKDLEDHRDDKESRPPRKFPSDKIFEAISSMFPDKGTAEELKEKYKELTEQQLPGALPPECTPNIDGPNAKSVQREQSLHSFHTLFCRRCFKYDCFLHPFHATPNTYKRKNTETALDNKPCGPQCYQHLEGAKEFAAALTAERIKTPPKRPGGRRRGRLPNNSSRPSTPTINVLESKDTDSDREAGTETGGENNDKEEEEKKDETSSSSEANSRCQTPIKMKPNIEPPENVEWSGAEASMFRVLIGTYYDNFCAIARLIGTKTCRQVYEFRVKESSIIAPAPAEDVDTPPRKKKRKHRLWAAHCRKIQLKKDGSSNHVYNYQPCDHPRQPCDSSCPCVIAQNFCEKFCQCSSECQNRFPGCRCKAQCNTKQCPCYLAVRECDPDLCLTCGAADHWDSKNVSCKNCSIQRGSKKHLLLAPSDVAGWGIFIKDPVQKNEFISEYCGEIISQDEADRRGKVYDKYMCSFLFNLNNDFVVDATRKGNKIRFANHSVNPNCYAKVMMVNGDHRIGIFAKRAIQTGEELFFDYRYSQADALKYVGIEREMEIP
# Chain of Protein cereblon/Histone-lysine N-methyltransferase EZH2 (Homo sapiens) (Q96SW2 whole entry, looked up): as the sequence (Q96SW2 whole entry partner) above
# [4] = molecular target: Protein cereblon/E3 ubiquitin-protein ligase RING2 (Homo sapiens, UniProt Q96SW2+Q99496); test: PROTAC activity at CRBN/RING1B in human K562 cells assessed as degradation of RING1B protein expression at 0.1 to 10 uM incubated for 24 hrs by Western blotting analysis
# Chain of Protein cereblon/E3 ubiquitin-protein ligase RING2 (Q96SW2 whole entry): as the sequence (Q96SW2 whole entry partner) above
# Chain of Protein cereblon/E3 ubiquitin-protein ligase RING2 (Q99496 2-336 partner limits assumed): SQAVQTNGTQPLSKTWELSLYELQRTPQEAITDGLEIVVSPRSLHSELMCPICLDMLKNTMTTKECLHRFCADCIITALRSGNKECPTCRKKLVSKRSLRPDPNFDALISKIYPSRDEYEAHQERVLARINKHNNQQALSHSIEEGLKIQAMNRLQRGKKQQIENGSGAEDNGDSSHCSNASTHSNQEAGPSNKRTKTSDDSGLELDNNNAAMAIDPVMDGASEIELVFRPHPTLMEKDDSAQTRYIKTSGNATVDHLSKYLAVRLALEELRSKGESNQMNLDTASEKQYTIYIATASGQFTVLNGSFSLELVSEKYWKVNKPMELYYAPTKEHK
# K562 [5] = test: Induction of PRC1 degradation in human K562 cells assessed as reduction of H2AK119ub chromatin mark at 0.1 to 10 uM incubated for 24 hrs by Western blotting analysis
# [6] = molecular target: Protein cereblon/Polycomb protein SUZ12 (Homo sapiens) (UniProt Q15022+Q96SW2); test: PROTAC activity at CRBN/SUZ12 in human K562 cells assessed as degradation of SUZ12 protein expression at 0.1 to 10 uM incubated for 24 hrs by Western blotting analysis
# Chain of Protein cereblon/Polycomb protein SUZ12 (Homo sapiens) (Q15022 whole entry, looked up): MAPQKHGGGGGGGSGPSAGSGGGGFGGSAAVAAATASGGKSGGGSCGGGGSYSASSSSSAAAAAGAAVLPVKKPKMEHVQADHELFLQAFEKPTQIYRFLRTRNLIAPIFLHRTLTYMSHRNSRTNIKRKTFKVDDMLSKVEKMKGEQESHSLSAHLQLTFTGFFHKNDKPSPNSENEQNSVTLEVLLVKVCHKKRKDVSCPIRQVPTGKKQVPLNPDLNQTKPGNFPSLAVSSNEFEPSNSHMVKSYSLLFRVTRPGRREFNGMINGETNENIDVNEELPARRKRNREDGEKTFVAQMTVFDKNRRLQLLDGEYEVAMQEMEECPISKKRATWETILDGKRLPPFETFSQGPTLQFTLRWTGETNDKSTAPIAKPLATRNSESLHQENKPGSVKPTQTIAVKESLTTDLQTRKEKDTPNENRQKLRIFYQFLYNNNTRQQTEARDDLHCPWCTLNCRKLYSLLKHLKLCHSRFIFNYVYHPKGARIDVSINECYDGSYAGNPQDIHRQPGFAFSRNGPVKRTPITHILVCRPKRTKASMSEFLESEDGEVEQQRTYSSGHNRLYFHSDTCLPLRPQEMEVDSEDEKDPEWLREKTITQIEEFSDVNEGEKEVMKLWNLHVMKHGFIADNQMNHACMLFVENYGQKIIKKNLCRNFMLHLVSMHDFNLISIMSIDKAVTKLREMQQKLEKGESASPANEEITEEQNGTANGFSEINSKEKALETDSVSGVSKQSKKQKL
# Chain of Protein cereblon/Polycomb protein SUZ12 (Homo sapiens) (Q96SW2 whole entry, looked up): as the sequence (Q96SW2 whole entry partner) above
# [7] = molecular target: Protein cereblon/Polycomb complex protein BMI-1 (Homo sapiens, UniProt Q96SW2+P35226); test: PROTAC activity at […] in human K562 cells assessed as degradation of BMI1 protein expression at 0.1 to 10 uM incubated for 24 hrs by Western blotting analysis
# Chain of Protein cereblon/Polycomb complex protein BMI-1 (P35226 whole entry, looked up): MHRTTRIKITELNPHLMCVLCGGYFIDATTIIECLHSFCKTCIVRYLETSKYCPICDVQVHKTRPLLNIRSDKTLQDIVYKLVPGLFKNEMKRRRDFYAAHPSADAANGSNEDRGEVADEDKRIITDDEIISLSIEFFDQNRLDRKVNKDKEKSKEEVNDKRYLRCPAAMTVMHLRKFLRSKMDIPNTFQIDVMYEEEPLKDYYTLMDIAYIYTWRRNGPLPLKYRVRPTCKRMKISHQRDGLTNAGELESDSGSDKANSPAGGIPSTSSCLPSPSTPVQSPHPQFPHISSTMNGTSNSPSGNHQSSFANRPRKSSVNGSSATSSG
# Chain of Protein cereblon/Polycomb complex protein BMI-1 (Q96SW2 whole entry, looked up): as the sequence (Q96SW2 whole entry partner) above
Activity [2],Activity [3],Activity [4],Activity [6],Activity [7],Compound,Activity (K562 [1]),Activity (K562 [5])
inactive,inactive,inactive,inactive,inactive,O=C(CCCCCNc1cccc2c1C(=O)N(C1CCC(=O)NC1=O)C2=O)NCCCCN1CCN(c2ccc(-c3cnc(NCc4ccco4)n4cnnc34)cc2)CC1 (stereo unspecified),inactive,inactive
inactive,inactive,inactive,inactive,inactive,O=C(CCCCNc1cccc2c1C(=O)N(C1CCC(=O)NC1=O)C2=O)NCCCCN1CCN(c2ccc(-c3cnc(NCc4ccco4)n4cnnc34)cc2)CC1 (stereo unspecified),inactive,inactive
inactive,inactive,inactive,inactive,inactive,O=C(CCNc1cccc2c1C(=O)N(C1CCC(=O)NC1=O)C2=O)NCCCCN1CCN(c2ccc(-c3cnc(NCc4ccco4)n4cnnc34)cc2)CC1 (stereo unspecified),inactive,inactive
inactive,inactive,inactive,inactive,inactive,O=C(CCOCCNc1cccc2c1C(=O)N(C1CCC(=O)NC1=O)C2=O)NCCCCN1CCN(c2ccc(-c3cnc(NCc4ccco4)n4cnnc34)cc2)CC1 (stereo unspecified),inactive,inactive
inactive,inactive,inactive,inactive,inactive,O=C(CCCNc1cccc2c1C(=O)N(C1CCC(=O)NC1=O)C2=O)NCCCCN1CCN(c2ccc(-c3cnc(NCc4ccco4)n4cnnc34)cc2)CC1 (stereo unspecified),inactive,inactive

# The next lines start with the molecule.
Compound,Activity [2],Activity [3],Activity [4],Activity [6],Activity [7],Activity (K562 [1]),Activity (K562 [5])
O=C(CCOCCOCCNc1cccc2c1C(=O)N(C1CCC(=O)NC1=O)C2=O)NCCCCN1CCN(c2ccc(-c3cnc(NCc4ccco4)n4cnnc34)cc2)CC1 (stereo unspecified),Active,Active,inactive,Active,inactive,Active,inactive
O=C(CCOCCOCCOCCOCCNc1cccc2c1C(=O)N(C1CCC(=O)NC1=O)C2=O)NCCCCN1CCN(c2ccc(-c3cnc(NCc4ccco4)n4cnnc34)cc2)CC1 (stereo unspecified),inactive,inactive,inactive,inactive,inactive,inactive,inactive
O=C(CCOCCOCCOCCNc1cccc2c1C(=O)N(C1CCC(=O)NC1=O)C2=O)NCCCCN1CCN(c2ccc(-c3cnc(NCc4ccco4)n4cnnc34)cc2)CC1 (stereo unspecified),inactive,inactive,inactive,inactive,inactive,inactive,inactive
